From article PMC11161644, “An effective and rapidly degradable disinfectant from disinfection byproducts” (Nature Communications, 2024)
Several values for one entry are separate records, joined by “and”; a condition that tells them apart may be missing. Equal values may be shown once. Read-outs that look alike come from different tables or passages of the source. Each block holds one compound with its values, some of them ahead of it.

Columns and labels:
[1] = Degradation in seawater with simulated solar irradiation; details: for half-life at 10 mg L−1: pretreated seawater under simulated solar irradiation, pH 8.2; for Ln (C/C0): seawater pH 8.2, solar irradiation
Protocol: The solar photolysis experiments were conducted in a chamber equipped with eight simulated sunlight full-spectrum lamps (BlueMax 5900, Full Spectrum Solutions). The temperature in the chamber was maintained at 20 °C. The total intensity of simulated sunlight was determined using a digital photometer (DT-1010B, Shenzhen Golden Octopus, China). Quartz flasks were positioned in the chamber where the total intensity of simulated sunlight was 4.79 ± 0.04 mW cm^−2 for each quartz flask. […] A DBP was added at 10 mg L^−1 to 50 mL pretreated seawater (pH 8.2) in the quartz flasks and exposed to the simulated solar irradiation for 0‒96 h. Every 8 h, the quartz flasks were rotated in and out of the chamber, and the sample volume was determined and adjusted with ultrapure water to account for any water evaporation. During the solar irradiation experiments, the sample was adjusted to pH 6.2 and 7.2 or maintained at pH 8.2 by adding 4 mM phosphate buffer (pH 6.2, 7.2, and 8.2, respectively).
(§1) For the DBP samples with and without sunlight, aliquots were taken at a specific reaction time. The sample aliquots were analyzed using Agilent high-performance liquid chromatography (HPLC) equipped with a Poroshell 120 EC-C18 column (4.6 × 150 mm, 4 µm particle size, Agilent) and a UV detector. The mobile phase, consisting of water (pre-adjusted to pH 2 with phosphoric acid) and acetonitrile at 50/50 (v/v), was applied at a flow rate of 1.0 mL min^−1. PCMX, 2,4-dihalophenols and 5-halosalicylic acids were detected at the wavelength of 230 nm. 2,5-Dihalohydroquinones and 2,6-DCQ were detected at the wavelength of 280 nm. All the degradation experiments were conducted in duplicate.

[2] = Degradation in seawater in darkness (pH 6.2, 7.2, 8.2); details: for half-life at 10 mg L−1: pretreated seawater in darkness; for Ln (C/C0): seawater pH 8.2, darkness
Protocol: To study the DBP degradation in seawater in darkness, a DBP was added at 10 mg L^−1 to 50 mL pretreated seawater (pH 8.2) in the quartz flasks. The flasks were wrapped with aluminum foil to simulate the dark condition. The samples were kept at 20 °C in darkness for 0‒120 h, during which the sample was adjusted to pH 6.2 and 7.2 or maintained at pH 8.2 by adding 4 mM phosphate buffer (pH 6.2, 7.2, and 8.2, respectively).
as §1

[3] = test system: P. dumerilii embryos; assay: Developmental toxicity assay with P. dumerilii embryos, dilution factor of in-use concentration (EC50,DF), also after degradation in darkness; assay type: in vivo, Platynereis dumerilii; details: for Normal development: PCMX
Text: The DBP doses for 3-log E. coli reduction (pH 7.2) were set as the in-use concentrations, which were serially diluted and added to the P. dumerilii embryos at 12-h postfertilization. A dilution factor was defined as the ratio of the in-use concentration to the exposure concentration. Each exposure set contained a control sample (i.e., the embryos at 12-h postfertilization developed in seawater without the addition of DBPs). By 24-h postfertilization, normally developed embryos should have reached the first larval stage. An inverted stereomicroscope (×40 magnification) was used to observe the larvae. The normal development percentage was calculated as the ratio of normally developed embryos to total embryos. By plotting the curve of the normal development percentage versus the dilution factor, the EC50,DF value (i.e., the dilution factor corresponding to 50% of the normal development percentage of the control sample) was obtained using SigmaPlot 12. The developmental toxicity test was conducted in duplicate.

[4] = test system: E. coli (ATCC 25922); assay: Inactivation of E. coli by disinfectants (membrane filter enumeration, contact time 5 min); assay type: cell-based, Escherichia coli; details: for log reduction at 200 µg/mL / EC (3-log inactivation) / log reduction at 500 µg/mL: Escherichia coli, ATCC25922, 5 min; for log reduction at 200 µg/mL: dose 200 mg L-1; for log reduction at 200 µg/mL / log reduction at 500 µg/mL: 5 min, read-out: Log (N/N0); for EC (3-log inactivation) / E. coli inactivation rate constant k: pH 7.2, contact time 5 min; for EC (3-log inactivation): read-out: Dose for achieving 3-log inactivation of E. coli; for log reduction at 500 µg/mL: dose 500 mg L-1
In short: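 E. coli ATCC 25922 (10^6‒10^7 cells/mL) exposed to a series of DBP doses in 10 mM PBS (pH 7.2; pH effect tested at 6.2, 7.2, 8.2) for 5 min at 22 ± 1 °C. Survivors enumerated by membrane filtration on m-FC medium at 45 °C for 24 h; inactivation relative to undisinfected control.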

SMILES: Cc1cc(O)cc(C)c1Cl [PCMX, para-chloro-meta-xylenol, reference compound]
half-life at 10 mg L−1 [1]: 257 h
Ln (C/C0) ([1]; 0 h): 0
half-life at 10 mg L−1 [2]: ~240 days
Ln (C/C0) ([2]; 0 h): 0
Degradation in 120 h ([2]; seawater, absence of sunlight): less than 5%
Normal development ([3]; degradation 0 h, dilution factor 6.7143): 0%
Normal development ([3]; degradation 0 h, dilution factor 7.2308): 4.232% and 2.756%
Normal development ([3]; degradation 0 h, dilution factor 7.6735): 25.4292% and 17.7492%
Normal development ([3]; degradation 0 h, dilution factor 8.1739): 29.4152% and 29.5272%
Normal development ([3]; degradation 0 h, dilution factor 8.7442): 46.2529% and 46.0367%
Normal development ([3]; degradation 0 h, dilution factor 9.4): 56.894% and 62.197%
Normal development ([3]; degradation 0 h, dilution factor 10.4444): 76.1488% and 70.708%
Normal development ([3]; degradation 0 h, dilution factor 11.75): 84.2318% and 84.1758%
Normal development ([3]; degradation 48 h, dilution factor 6.7143): 0%
Normal development ([3]; degradation 48 h, dilution factor 7.2308): 0%
Normal development ([3]; degradation 48 h, dilution factor 7.6735): 5.72% and 1.379%
Normal development ([3]; degradation 48 h, dilution factor 8.1739): 20.3803% and 14.4749%
Normal development ([3]; degradation 48 h, dilution factor 8.7442): 43.6056% and 44.3682%
Normal development ([3]; degradation 48 h, dilution factor 9.4): 43.7739% and 49.5131%
Normal development ([3]; degradation 48 h, dilution factor 10.4444): 54.207% and 47.1234%
Normal development ([3]; degradation 48 h, dilution factor 11.75): 73.3565% and 68.3577%
Normal development (%) ([3]; dilution factor 6.7143 of in-use concentration): 0%
Normal development (%) ([3]; dilution factor 7.2308): 4.232% and 2.756%
Normal development (%) ([3]; dilution factor 7.6735): 25.4292% and 17.7492%
Normal development (%) ([3]; dilution factor 8.1739): 29.4152% and 29.5272%
Normal development (%) ([3]; dilution factor 8.7442): 46.0367% and 46.2529%
Normal development (%) ([3]; dilution factor 9.4): 62.197% and 56.894%
Normal development (%) ([3]; dilution factor 10.4444): 76.1488% and 70.708%
Normal development (%) ([3]; dilution factor 11.75): 84.2038%
log reduction at 200 µg/mL ([4]; pH 6.2, E. coli, pH 6.2): 4.19
log reduction at 200 µg/mL ([4]; pH 7.2, E. coli, pH 7.2): 3.54
log reduction at 200 µg/mL ([4]; pH 8.2, E. coli, pH 8.2): 5.56
EC (3-log inactivation) [4]: 188 µg/mL
E. coli inactivation rate constant k [4]: 0.66 L mg‒1 h‒1

half-life at 10 mg L−1 [1]: 0.16 h
Ln (C/C0) ([1]; 0 min): 0
Relative concentration remaining (1 at 0 min) ([2]; pH 6.2, degradation time 0 min): 1
Relative concentration remaining (1 at 0 min) ([2]; pH 6.2, degradation time 15 min): 1.009 and 0.9751
Relative concentration remaining (1 at 0 min) ([2]; pH 6.2, degradation time 30 min): 1.028 and 0.9729
Relative concentration remaining (1 at 0 min) ([2]; pH 6.2, degradation time 60 min): 1.02 and 0.9831
Relative concentration remaining (1 at 0 min) ([2]; pH 6.2, degradation time 90 min): 0.9778 and 1.02
Relative concentration remaining (1 at 0 min) ([2]; pH 6.2, degradation time 120 min): 1 and 0.9297
Relative concentration remaining (1 at 0 min) ([2]; pH 6.2, degradation time 180 min): 0.9306 and 0.9617
Relative concentration remaining (1 at 0 min) ([2]; pH 6.2, degradation time 240 min): 0.9273 and 0.981
Relative concentration remaining (1 at 0 min) ([2]; pH 7.2, degradation time 0 min): 1
Relative concentration remaining (1 at 0 min) ([2]; pH 7.2, degradation time 15 min): 1.0017 and 0.9494
Relative concentration remaining (1 at 0 min) ([2]; pH 7.2, degradation time 30 min): 1.002 and 0.9365
Relative concentration remaining (1 at 0 min) ([2]; pH 7.2, degradation time 45 min): 0.934 and 0.9212
Relative concentration remaining (1 at 0 min) ([2]; pH 7.2, degradation time 60 min): 0.9213 and 0.886
Relative concentration remaining (1 at 0 min) ([2]; pH 7.2, degradation time 90 min): 0.8145 and 0.7791
Relative concentration remaining (1 at 0 min) ([2]; pH 7.2, degradation time 120 min): 0.7145 and 0.6664
Relative concentration remaining (1 at 0 min) ([2]; pH 7.2, degradation time 180 min): 0.5609 and 0.5354
Relative concentration remaining (1 at 0 min) ([2]; pH 8.2, degradation time 0 min): 1
Relative concentration remaining (1 at 0 min) ([2]; pH 8.2, degradation time 3 min): 0.721 and 0.687
Relative concentration remaining (1 at 0 min) ([2]; pH 8.2, degradation time 8 min): 0.4796 and 0.4372
Relative concentration remaining (1 at 0 min) ([2]; pH 8.2, degradation time 12 min): 0.4155 and 0.3689
Relative concentration remaining (1 at 0 min) ([2]; pH 8.2, degradation time 16 min): 0.2998 and 0.2743
Relative concentration remaining (1 at 0 min) ([2]; pH 8.2, degradation time 20 min): 0.2215 and 0.1988
Relative concentration remaining (1 at 0 min) ([2]; pH 8.2, degradation time 25 min): 0.1592 and 0.1253
half-life at 10 mg L−1 ([2]; pH 8.2): 0.00667 days
Ln (C/C0) ([2]; 0 min): 0
SMILES: Oc1cc(I)c(O)cc1I [2,5-DIHQ, 2,5-diiodohydroquinone]
Normal development (%) ([3]; dilution factor 86.0274): 0.8729% and 0%
Normal development (%) ([3]; dilution factor 103.233): 7.707% and 3.405%
Normal development (%) ([3]; dilution factor 129.041): 16.1617% and 11.8279%
Normal development (%) ([3]; dilution factor 172.055): 46.0177% and 46.8181%
Normal development (%) ([3]; dilution factor 258.082): 63.2599% and 58.9623%
Normal development (%) ([3]; dilution factor 516.165): 88.6525% and 83.3333%
log reduction at 500 µg/mL ([4]; pH 6.2, E. coli, pH 6.2): 1.76
log reduction at 500 µg/mL ([4]; pH 7.2, E. coli, pH 7.2): 3.66
log reduction at 500 µg/mL ([4]; pH 8.2, E. coli, pH 8.2): 5.5
EC (3-log inactivation) [4]: 459 µg/mL
E. coli inactivation rate constant k [4]: 0.13 L mg‒1 h‒1
